“Also recorded” adds a separate entry of the source. Like-named read-outs stand apart in the source and are kept apart here.
Key:
growing B. burgdorferi = experiment: MIC of active hits; format: cell-based, Borrelia burgdorferi
[1] = test system: stationary phase B. burgdorferi; experiment: Residual viable B. burgdorferi by epifluorescence microscope counting after drug exposure; conditions: for viability at 50 µM: Borreliella burgdorferi, 168 h, read-out: Residual viable cells (Microscopy)
Procedure: (§1) Borrelia burgdorferi strain B31 (ATCC35210) was received from the […] (Manassas, Va., USA) and was grown in BSK-H medium (HiMedia Laboratories, Mumbai, India) and 6% rabbit serum (Sigma Aldrich, St. Louis, Mo., USA). The culture was filtered and sterilized using a […] and incubated in capped sterile 50 mL conical tubes (BD Biosciences, CA, USA) at 33° C. for 7 days without antibiotics until the culture reached stationary phase.
(§2) The cultures were examined using a Nikon Eclipse E800 microscope with differential interference contrast and epifluorescent illumination. The pictures were captured using a SPOT slider color camera. A SYBR Green I/PI assay was used to assess the viability of the bacterial sample using the ratio of live to dead B. burgdorferi (measured with green and red fluorescence, respectively) as measured by a plate reader.
(§3) Briefly, prediluted drug stock (10 μL) was added to 7 day old stationary phase B. burgdorferi culture (90 μL) to achieve a 50 μM final drug concentration per well. The plates were then incubated at 33° C. for 7 days at which point the SYBR/PI rapid viability assay was performed in a fluorescence plate reader to obtain the green-red fluorescence ratio.

[2] = test system: stationary phase B. burgdorferi; experiment: SYBR Green I/PI viability assay (drug library screen, plate reader); conditions: for viability at 50 µM: Borreliella burgdorferi, 168 h; for viability at 50 µM / Residual viable cells (SYBR Green/PI) / Residual viable cells (SYBR/PI): drugs 50 μM; for activity against stationary phase B. burgdorferi (in words): screen at 50 μM, 7 days; for Residual viable cells (SYBR Green/PI): Table 1; for Residual viable cells (SYBR/PI): Table 3
Procedure: as §1, §2, §3

[3] = Borreliella burgdorferi, read-out: MIC
[4] = read-out: Residual viable cells (SYBR Green/PI), Table 1, 7 day old stationary phase cells treated for 7 days
[5] = read-out: Residual viable cells (SYBR/PI), Table 3, 7-day old stationary phase cells treated for 7 days
[6] = Table 1, drugs 50 μM, 7 day old stationary phase cells treated for 7 days
[7] = Table 3, drugs 50 μM, 7-day old stationary phase cells treated for 7 days
[8] = 7 day old stationary phase cells treated for 7 days
[9] = 7-day old stationary phase cells treated for 7 days

Molecule	MIC (growing B. burgdorferi; [3]) [µg/mL]	viability at 50 µM [1] [%]	viability at 50 µM [2, 4] [%]	viability at 50 µM [2, 5] [%]	activity against stationary phase B. burgdorferi (in words) [2]	MIC (growing B. burgdorferi) [µg/mL]	Residual viable cells (Microscopy) [1, 6] [%]	Residual viable cells (Microscopy) [1, 7] [%]	Residual viable cells (SYBR Green/PI) [2, 8] [%]	Residual viable cells (SYBR/PI) [2, 9] [%]	Residual viable cells (Microscopy) [1] [%]
O=C(O)[C@@H]1CCC(O)=N1 (racemic) [Pidolic acid, DL-2-Pyrrolidone-5-Carboxylic Acid]	0.81 to 1.61	45	45	43	high activity						
CO[C@H]1/C=C/O[C@@]2(C)Oc3c(C)c(O)c4c(O)c(c(C=O)c(O)c4c3C2=O)NC(=O)/C(C)=C\C=C\[C@H](C)[C@H](O)[C@@H](C)[C@@H](O)[C@@H](C)[C@H](OC(C)=O)[C@@H]1C [3-formyl Rifamycin]						2.27 to 4.54	59	59	42	42	
CCCCCCCCCCCC[N+](C)(C)Cc1ccccc1 [Benzododecinium chloride]	0.6 to 1.2			40	very high activities						
OC(Cn1cncn1)(Cn1cncn1)c1ccc(F)cc1F [Fluconazole]	0.48 to 0.96	45	55	55	reasonable activity						
Cc1c(-c2cnccn2)ssc1=S [Oltipraz]	0.71 to 1.41	55	46	46	high activity						
CCCCCCCCCCCCCCCC[N+](C)(C)CCN(Cc1ccc(OC)cc1)c1ncccn1 [Thonzonium bromide]	0.92 to 1.85	33		31	very high activities; also recorded: comparable activity to daptomycin						
Dextrorphan tartrate					high activity	1.27 to 2.55	43	43	47	47	
Mepartricin					reasonable activity		60		43	43	
Potassium antimonyl tartrate trihydrate [Tartar emetic]							45	45	42	42	
Verteporfin					high activity	4.49 to 8.98					47

Reference: patent US20190008848A1, “IDENTIFICATION OF ADDITIONAL ANTI-PERSISTER ACTIVITY AGAINST BORRELIA BURGDORFERI FROM AN FDA DRUG LIBRARY” (THE JOHNS HOPKINS UNIVERSITY, priority 2015, published 2019)
